Among the data in ChEMBL document CHEMBL1777737, “Solid phase synthesis of tariquidar-related modulators of ABC transporters preferring breast cancer resistance protein (ABCG2)” (Bioorg Med Chem Lett, 2011) are IC50 and Emax values, retold here.

What all share (type): cell-based
Data set [1] deals with ATP-dependent translocase ABCB1 (Homo sapiens, UniProt P08183). As to the kind of experiment: Inhibition of ABCB1 expressed in Kb-V1 cells after 10 mins by calcein-AM assay.
Data set [2] concerns the target T1, Broad substrate specificity ATP-binding cassette transporter ABCG2 (Homo sapiens, UniProt Q9UNQ0).
T1 sequence (Q9UNQ0 whole entry): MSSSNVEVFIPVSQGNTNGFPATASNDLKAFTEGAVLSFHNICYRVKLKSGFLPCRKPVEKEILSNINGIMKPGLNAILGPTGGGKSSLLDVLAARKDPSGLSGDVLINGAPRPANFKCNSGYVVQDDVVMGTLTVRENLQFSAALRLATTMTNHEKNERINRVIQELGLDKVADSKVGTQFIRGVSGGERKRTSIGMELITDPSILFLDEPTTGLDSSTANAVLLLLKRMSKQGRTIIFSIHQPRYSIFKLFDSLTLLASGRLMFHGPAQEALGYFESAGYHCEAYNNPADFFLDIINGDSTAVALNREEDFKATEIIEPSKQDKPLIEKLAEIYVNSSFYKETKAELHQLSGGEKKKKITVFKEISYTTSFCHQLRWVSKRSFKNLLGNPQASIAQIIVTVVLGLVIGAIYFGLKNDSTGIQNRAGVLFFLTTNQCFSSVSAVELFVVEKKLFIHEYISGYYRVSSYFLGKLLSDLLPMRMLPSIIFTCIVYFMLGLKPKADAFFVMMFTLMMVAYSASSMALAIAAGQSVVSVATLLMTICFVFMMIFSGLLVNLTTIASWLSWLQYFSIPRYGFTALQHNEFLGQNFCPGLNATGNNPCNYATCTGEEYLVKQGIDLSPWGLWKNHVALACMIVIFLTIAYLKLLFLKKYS
Kind of data set: Inhibition of ABCG2 expressed in human MCF7/Topo cells by Hoechst microplate assay.

In the next data set the target is T2, ABCG2 (Homo sapiens, UniProt Q9UNQ0).
T2 sequence (Q9UNQ0 whole entry): T1 sequence (Q9UNQ0 whole entry)
As to the kind of experiment: Inhibition of ABCG2 expressed in human MCF7/Topo cells assessed as maximal inhibitory effect at IC50 concentration by Hoechst microplate assay. The note with it: MCF7/Topo cells expressing ABCG2, probe Hoechst dye, read-out: INH.

Sequence of ATP-dependent translocase ABCB1 (P08183 whole entry): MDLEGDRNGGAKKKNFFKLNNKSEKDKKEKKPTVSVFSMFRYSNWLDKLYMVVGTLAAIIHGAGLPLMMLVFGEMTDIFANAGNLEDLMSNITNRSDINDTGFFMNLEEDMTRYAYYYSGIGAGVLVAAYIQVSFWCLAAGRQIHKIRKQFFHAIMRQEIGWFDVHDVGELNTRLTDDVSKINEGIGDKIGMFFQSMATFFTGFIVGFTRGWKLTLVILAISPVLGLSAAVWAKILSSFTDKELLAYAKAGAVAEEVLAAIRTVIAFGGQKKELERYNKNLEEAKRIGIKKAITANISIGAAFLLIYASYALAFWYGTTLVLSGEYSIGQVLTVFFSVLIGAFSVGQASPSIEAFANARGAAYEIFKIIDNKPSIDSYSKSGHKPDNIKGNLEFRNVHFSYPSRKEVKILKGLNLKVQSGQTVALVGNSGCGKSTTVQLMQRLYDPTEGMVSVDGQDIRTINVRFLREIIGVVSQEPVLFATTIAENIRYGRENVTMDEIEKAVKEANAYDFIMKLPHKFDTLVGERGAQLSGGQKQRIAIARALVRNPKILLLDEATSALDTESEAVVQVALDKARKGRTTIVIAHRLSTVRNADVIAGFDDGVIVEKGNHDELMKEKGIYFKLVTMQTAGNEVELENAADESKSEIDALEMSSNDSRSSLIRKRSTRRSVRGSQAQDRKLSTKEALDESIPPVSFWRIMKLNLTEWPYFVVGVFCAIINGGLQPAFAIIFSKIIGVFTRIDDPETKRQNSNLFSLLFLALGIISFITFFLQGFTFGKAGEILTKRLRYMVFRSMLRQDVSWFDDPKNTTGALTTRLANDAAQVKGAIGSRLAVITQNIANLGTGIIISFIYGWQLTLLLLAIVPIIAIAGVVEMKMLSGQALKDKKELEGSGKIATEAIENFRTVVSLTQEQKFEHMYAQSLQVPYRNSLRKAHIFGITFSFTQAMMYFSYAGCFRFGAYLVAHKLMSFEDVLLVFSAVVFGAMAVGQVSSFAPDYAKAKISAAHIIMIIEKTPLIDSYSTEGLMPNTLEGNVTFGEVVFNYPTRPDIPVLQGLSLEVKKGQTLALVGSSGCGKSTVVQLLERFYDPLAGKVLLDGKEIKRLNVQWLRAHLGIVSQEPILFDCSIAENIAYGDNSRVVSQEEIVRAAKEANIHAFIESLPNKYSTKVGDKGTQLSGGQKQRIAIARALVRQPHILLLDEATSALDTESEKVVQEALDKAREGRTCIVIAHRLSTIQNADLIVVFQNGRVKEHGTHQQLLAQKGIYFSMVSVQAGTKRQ

For the molecule `COCCOCCOCCOc1cc2c(cc1OC)CCN(CCc1ccc(NC(=O)c3ccc(C(=O)OC)c(NC(=O)c4ccc5ncccc5c4)c3)cc1)C2`, the figures for the IC50 in data set [1] and in data set [2] were > 50 µM and 508 nM, respectively. At ABCG2, the Emax was 61%.

For `COc1cc2c(cc1OC)CN(CCc1ccc(NC(=O)c3ccc(C(=O)O)c(NC(=O)c4ccc5ccccc5n4)c3)cc1)CC2`, the IC50 was > 50 µM in data set [1] and > 5000 nM in data set [2].

In the case of `COc1cc2c(cc1OC)CN(CCc1ccc(NC(=O)c3ccc(C(=O)O)c(NC(=O)c4ccc5ncccc5c4)c3)cc1)CC2`, the IC50 in data set [1] is > 1 µM; in data set [2], > 100000 nM.

Regarding `COCCOCCOCCOc1cc2c(cc1OC)CN(CCc1ccc(NC(=O)c3ccc(C(=O)O)c(NC(=O)c4ccc5ccccc5n4)c3)cc1)CC2`, the IC50 is > 100 µM in data set [1] and > 50000 nM in data set [2].

For `COCCOCCOCCOc1cc2c(cc1OC)CN(CCc1ccc(NC(=O)c3ccc(C(=O)O)c(NC(=O)c4ccc5ncccc5c4)c3)cc1)CC2`, the IC50 in data set [1] is > 50 µM; in data set [2], > 50000 nM.

With `COCCOCCOCCOc1cc2c(cc1OC)CCN(CCc1ccc(NC(=O)c3ccc(C(=O)O)c(NC(=O)c4ccc5ccccc5n4)c3)cc1)C2`, the figures for the half-maximal inhibitory concentration (IC50) in data set [1] and in data set [2] were > 100 µM and 6200 nM, respectively.

`COCCOCCOCCOc1cc2c(cc1OC)CCN(CCc1ccc(NC(=O)c3ccc(C(=O)O)c(NC(=O)c4ccc5ncccc5c4)c3)cc1)C2`: the values for the IC50 in data set [1] and in data set [2] were > 50 µM and > 50000 nM, respectively.

`COCCOCCOCCOc1cc2c(cc1OC)CN(CCc1ccc(NC(=O)c3ccc(C(=O)OC)c(NC(=O)c4ccc5ccccc5n4)c3)cc1)CC2`: the IC50 was > 50 µM in data set [1] and 183 nM in data set [2].

`COCCOCCOCCOc1cc2c(cc1OC)CN(CCc1ccc(NC(=O)c3ccc(C(=O)OC)c(NC(=O)c4ccc5ncccc5c4)c3)cc1)CC2`: the results for the IC50 in data set [1] and in data set [2] were > 100 µM and 390 nM, respectively. The Emax at ABCG2 was found to be 41%.

For `COCCOCCOCCOc1cc2c(cc1OC)CCN(CCc1ccc(NC(=O)c3ccc(C(=O)OC)c(NC(=O)c4ccc5ccccc5n4)c3)cc1)C2`, the IC50 is > 50 µM in data set [1] and 130 nM in data set [2].

Regarding `COC(=O)c1ccc(C(=O)Nc2ccc(CCN3CCc4cc(OC)c(OC)cc4C3)cc2)cc1NC(=O)c1ccc2ncccc2c1`, the IC50 was > 10 µM in data set [1] and 172 nM in data set [2]. On ABCG2, the Emax stood at 55%.

`COC(=O)c1ccc(C(=O)Nc2ccc(CCN3CCc4cc(OC)c(OC)cc4C3)cc2)cc1NC(=O)c1ccc2ccccc2n1`: the half-maximal inhibitory concentration (IC50) in data set [1] was > 29 µM; in data set [2], 59 nM.

The IC50 is the concentration that inhibits the measured activity by half.
